Measurements from publication PMC12305496, “Bilosomal Encapsulation of Binuclear Phosphino Ru(II)–Cu(II) Compounds Enhances Their Selectivity and Activity toward Lung and Prostate Cancers” (Journal of Medicinal Chemistry, 2025).

Legend:
Type in all cases: cell-based, human
A549 cells [1] = experiment: MTT cytotoxicity assay, A549
Method: (§4) Primary screening of the antiproliferative activity of the heteronuclear Ru­(II)–Cu­(II) complexes was performed by the commonly used MTT assay on four human cancer cell lines: MCF-7 (breast), A549 (lung adenocarcinoma), DU145 (prostate), and PANC-1 (pancreatic). In addition, normal human embryonic kidney (HEK293T) and human keratinocyte (HaCaT) cell lines were used as controls to assess the toxicity of these complexes. The IC50 values (the concentration that causes 50% inhibition of cell proliferation) examined for compounds are compared to those obtained for clinically used cisplatin (CDDP) under the same experimental conditions.
(§5) The MCF7 cell line (human breast adenocarcinoma; morphology: epithelial-like, ATCC: HTB-22), A549 cell line (human lung adenocarcinoma, morphology: epithelial, ATCC: CCL-185), PANC-1 (human pancreatic/duct carcinoma, morphology: epithelial, ATCC: CRL-1469), and HaCaT (human keratinocyte, ATCC PCS-200-011) were cultured in DMEM (Corning), supplemented with 10% fetal bovine serum (FBS) and with 1% streptomycin/penicillin. The DU145 cell line (human prostate carcinoma) and HEK293T and HEK293 cell line (human embryonic kidney) were cultured in minimum essential medium (MEM, Corning) with 10% FBS. Cultures were incubated at 37 °C under a humidified atmosphere containing 5% CO2. Cells were passaged using a solution containing 0.05% trypsin and 0.5 mM EDTA. All media and other ingredients were purchased from ALAB­(Poland) or Thermo Fisher Scientific (USA).
(§6) Since most of the studied compounds are insoluble in aqueous media, they needed to be predissolved in DMSO for biological evaluation. DMSO was used in cell cultures at a concentration below 0.1% (v/v) to minimize its cytotoxicity and changes in gene expression. Cytotoxicity of the studied compounds was assessed using an MTT assay performed according to the protocols described previously. […] After that time, solutions of compounds were washed out, cells were then washed three times with PBS (1X), and a fresh medium was applied. Each compound concentration was tested in five replicates and repeated at least three times. Determined values of IC50 (concentration of a drug required to inhibit the growth of 50% of the cells) are given as mean ± SD. […] IC50 values were determined, after 72 h, from the plots of cell viability in the presence of various concentrations of each compound by matching the dose–response curves.

MCF7 cells = experiment: MTT cytotoxicity assay, MCF7
Text: The IC50 values (the concentration that causes 50% inhibition of cell proliferation) examined for compounds are compared to those obtained for clinically used cisplatin (CDDP) under the same experimental conditions.
The MCF7 cell line (human breast adenocarcinoma; morphology: epithelial-like, ATCC: HTB-22), A549 cell line (human lung adenocarcinoma, morphology: epithelial, ATCC: CCL-185), PANC-1 (human pancreatic/duct carcinoma, morphology: epithelial, ATCC: CRL-1469), and HaCaT (human keratinocyte, ATCC PCS-200-011) were cultured in DMEM (Corning), supplemented with 10% fetal bovine serum (FBS) and with 1% streptomycin/penicillin. […] Cultures were incubated at 37 °C under a humidified atmosphere containing 5% CO2. Cells were passaged using a solution containing 0.05% trypsin and 0.5 mM EDTA.
as §6

DU145 cells [2] = experiment: MTT cytotoxicity assay, DU145
Method: as §4, §5, §6

PANC-1 cells = experiment: MTT cytotoxicity assay, PANC-1
Method: as §4, §5, §6

HEK293T cells = experiment: MTT cytotoxicity assay, HEK293T
Method: as §4, §5, §6

HaCaT cells = experiment: MTT cytotoxicity assay, HaCaT
Method: as §4, §5, §6

[3] = test system: BAX and BCL-2 genes' expression; experiment: RT-qPCR of BAX and BCL-2 gene expression in A549 cells; conditions: mRNA, control = 1
Method: In this study, using Reverse transcription (RT)-quantitative real-time PCR (RT-qPCR), we analyzed whether the expression ratio of Bax to Bcl-2 mRNA correlates with apoptosis or the proliferative activity of cancer cells. −
For this purpose, total RNA was isolated using the Total RNA Mini Plus kit (A&A Biotechnology, Gdansk, Poland) following the manufacturer’s instructions. A total of 1 μg of RNA was subjected to RT into complementary DNA (cDNA) using oligo­(dT)­18 and the TranScriba Kit (A&A Biotechnology, Gdansk, Poland). The qRT-PCR experiments were performed with the Sensitive RT HS-PCR Mix (A&A Biotechnology, Gdansk, Poland) on a real-time PCR thermal cycler from Bio-Rad. The TaqMan primers used in this study were obtained from Thermo Fisher Scientific/Invitrogen, specifically Bax (Hs00180269_m1), Bcl-2 (Hs04986394_s1), and GAPDH (4352932E). The relative transcript quantification was carried out using the 2^–ΔΔCt method with GAPDH as the reference gene.

A549 cells [4] = experiment: Cell cycle analysis by flow cytometry; conditions: A549, 5 μM, 24 h
Method: Before treatment, cells were synchronized, and the compounds were applied at various concentrations.
The A549 and DU145 cells (3 × 10^5/well) were seeded in 12-well plates and treated with various concentrations of the examined complexes and CDDP for 24 h. Synchronization of A549 and DU145 cell cultures was performed by serum starvation. Serum starvation is widely used for synchronizing donor cells by arresting them in the G 0/G 1 phase of the cell cycle. Cell cultures were seeded and incubated in growth medium with 20% FBS overnight to synchronize the cell cultures. Then, the cultures were rinsed with PBS (1×) and changed to a serum-free medium. After serum starvation for 18 h, the cells were passaged and released into the cell cycle by the addition of the serum. Then cells were treated with the examined compounds and CDDP for 24 h. For FACS analysis, cell samples were harvested with trypsinization and stained with propidium iodide (20 μg/mL). Cell cycle phase distributions were analyzed by flow cytometry (BD Bioscience). Experiments were reaped at least three times.

A549 cells [5] = experiment: PrestoBlue HS cell viability assay, A549; conditions: 24 h, dissolved in 0.9% NaCl
Method: (§1) Primary screening of the antiproliferative activity of the heteronuclear Ru(II)–Cu(II) complexes was performed by the commonly used MTT assay on four human cancer cell lines: MCF-7 (breast), A549 (lung adenocarcinoma), DU145 (prostate), and PANC-1 (pancreatic). In addition, normal human embryonic kidney (HEK293T) and human keratinocyte (HaCaT) cell lines were used as controls to assess the toxicity of these complexes. […] To verify whether the use of DMSO as a solvent influenced the cytotoxic activity of CDDP, we performed additional experiments (Figure S29) with CDDP (Sigma-Aldrich) dissolved in 0.9% NaCl as per the manufacturer’s recommendation. […]
(§2) Additionally, the viability of A549 and DU145 cell lines, as well as the control cell line HEK293, upon CDDP in 0.9% NaCl, was assessed using the resazurin-based PrestoBlue HS Cell Viability assay, according to the manufacturer’s protocol. […] Results were recorded using fluorescence (excitation 560 nm, emission 590 nm) and absorbance (570 nm), with fluorescence values calculated further using GraphPad Prism software, v. […]
(§3) Figure S29. […] Cells were incubated with varying concentrations of CDDP for 24 h and cell viability was measured by fluorescence intensity (excitation 560 nm, emission 590 nm). […]

DU145 cells [6] = experiment: PrestoBlue HS cell viability assay, DU145; conditions: 24 h, dissolved in 0.9% NaCl
Method: as §1, §2, §3

HEK293 cells = experiment: PrestoBlue HS cell viability assay, HEK293; conditions: 24 h, dissolved in 0.9% NaCl
Method: as §1, §2, §3

[7] = 24 h treatment, DMSO predissolved
[8] = 72 h (24 h + 48 h regeneration)
[9] = 24 h, Table 2 (bilosome comparison)

Row | Compound | IC50 (A549 cells [1]; [7]) | IC50 (A549 cells [1]; [8]) | IC50 (MCF7 cells; 24 h treatment) | IC50 (DU145 cells [2]; [9]) | IC50 (DU145 cells [2]; [7]) | IC50 (DU145 cells [2]; [8]) | IC50 (PANC-1 cells; 24 h treatment) | IC50 (PANC-1 cells; [8]) | IC50 (HEK293T cells; [9]) | IC50 (HEK293T cells; 24 h treatment) | IC50 (HEK293T cells; [8]) | IC50 (HaCaT cells; [9]) | IC50 (HaCaT cells; 24 h treatment) | IC50 (HaCaT cells; [8]) | Bax/Bcl-2 ratio [3] | effect on cell cycle (A549 cells [4]) | also measured
1 | [Ru(η^6-p-cymene)Cl2Pcfx-Cu(phen)](NO3) [RuPCpCu] | 44.4 ± 0.78 µM | 12.6 ± 0.83 µM | 25 ± 0.91 µM | 31 ± 1.05 µM | 31 ± 1.05 µM | 15 ± 0.44 µM | 25.9 ± 0.01 µM | 21.7 ± 1.02 µM | 644 ± 13.1 µM | 644 ± 13.1 µM | 796 ± 8.9 µM | 935 ± 9.3 µM | 935 ± 9.3 µM | 834 ± 11.9 µM | 6.4 | induced cell cycle arrest in the S phase | 
2 | [Ru(η^6-p-cymene)Cl2Pnfx-Cu(phen)](NO3) [RuPNrCu] | 48.1 ± 0.06 µM | 18.8 ± 3.4 µM | 24.7 ± 1.95 µM |  | 14.5 ± 1.04 µM | 14.9 ± 0.23 µM | 29.5 ± 0.81 µM | 23.1 ± 1.09 µM |  | 677 ± 12.7 µM | 798 ± 14.8 µM |  | > 1000 µM | 873 ± 18.8 µM |  |  | 
3 | [NH2][Pt]([NH2])([Cl])[Cl] [CDDP, cisplatin, reference compound] | 57 ± 1.3 µM | 71.7 ± 3.7 µM | 51.9 ± 4.61 µM | 68.3 ± 1.3 µM | 68.3 ± 1.35 µM | 65.5 ± 3.61 µM | 95.6 ± 2.61 µM | 76.6 ± 1.68 µM | 21 ± 1.6 µM | 21 ± 1.81 µM | 10.3 ± 2.15 µM | 43.3 ± 1.1 µM | 43.3 ± 1.1 µM | 17.3 ± 3.1 µM | 4.56 |  | IC50 (A549 cells [1]; [9]): 57 ± 1.3 µM; IC50 (MCF7 cells; [8]): 17.7 ± 8.6 µM; IC50 (A549 cells [5]): 51.9 µM; IC50 (DU145 cells [6]): 101 µM; IC50 (HEK293 cells): 87 µM
4 | [Ru(η^6-p-cymene)Cl2Psfx-Cu(phen)] [RuPSfCu] | 41.1 ± 0.7 µM | 25.4 ± 1.66 µM | 17.7 ± 0.93 µM |  | 16 ± 0.05 µM | 13.5 ± 0.35 µM | 27.2 ± 0.86 µM | 22.1 ± 0.68 µM |  | 546 ± 11.2 µM | 695 ± 14.2 µM |  | > 1000 µM | 741 ± 13.2 µM |  | induced cell cycle arrest in the S phase | 
5 | [Ru(η^6-p-cymene)Cl2Plfx-Cu(phen)](NO3) [RuPLmCu] | 42.6 ± 0.68 µM | 24.3 ± 0.91 µM | 26.7 ± 2.82 µM |  | 18.9 ± 1.21 µM | 12.7 ± 0.92 µM | 28.3 ± 0.71 µM | 22.7 ± 1.03 µM |  | 634 ± 9.1 µM | 782 ± 14.2 µM |  | 936 ± 10.1 µM | 833 ± 12.2 µM |  |  | 
